EC50 data for 89 molecules are collected here from PubChem BioAssay AID816 (SRMLSC, 2007).

Usually EC50 stands for the concentration that produces a half-maximal response.

Active and inactive are the calls of the source. How the calls were made is not given here.

For the assay, the system named is S. cerevisiae GAL1 promoter reporter activation counterscreen. Put plainly: yeast Gal1p promoter activation – S. cerevisiae, artefact control for yeast lifespan extension project (AID 816).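 Further: yeast growth read after 24 h of incubation with compounds.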
Turning to `O=C1C(=C(O)c2ccccc2)C(=O)c2ccccc21`, the EC50 was > 40 µM (inactive).
Under `Fc1cccc2sc(Nc3nnc(-c4ccco4)o3)nc12` stands > 40 µM (inactive).
The same measure for `Cc1ccc(OCC(=O)c2c(O)c3ccccc3oc2=O)cc1C`: > 40 µM (inactive); for `CC(=C1C(=O)c2ccccc2C1=O)N1CCN(C/C=C/c2ccccc2)CC1`: > 40 µM (inactive).
The same measure for `COc1ccccc1CN(Cc1nc2ccccc2c(=O)[nH]1)C(=O)Nc1cccc(C)c1`: > 40 µM (inactive); for `COC(=O)c1sc2ncn(-n3c(C)ccc3C)c(=O)c2c1C`: > 40 µM (inactive).
As for `O=C(O)c1ccc(O)c(N2C(=O)Nc3ccccc3N2O)c1`, the EC50 is > 40 µM (inactive).
Take `CCn1c(=O)c2ccccc2n2c(SCC(=O)N3CCCc4ccccc43)nnc12`: the EC50 is > 40 µM (inactive).
As for `COc1cc(/C=C/C(=O)C2C(=O)C=C(C)OC2=O)cc(OC)c1O` (centres undefined), the EC50 was > 40 µM (inactive).
Regarding `COc1ccccc1C(=O)Oc1cc(N)n(S(=O)(=O)c2ccc(C)cc2)n1`, the EC50 was > 40 µM (inactive).
Under `CCn1c(/N=C/c2ccccc2NS(=O)(=O)c2ccc(C)cc2)nc2ccccc21` stands > 40 µM (inactive); under `CC(C)=C1C(=O)NN(c2ccc(C)c(Cl)c2)C1=O`, > 40 µM (inactive).
Under `CCC(=O)Nc1ccccc1Sc1ncnc2scc(-c3ccccc3)c12` stands > 40 µM (inactive).
In the case of `O=C(CSc1nc2ccccc2o1)c1cc2ccccc2oc1=O`, the EC50 was > 40 µM (inactive).
For the molecule `CCn1ccc(C(=O)Nc2ccc(S(=O)(=O)Nc3ccccc3OC)cc2)n1`, the EC50 is > 40 µM (inactive).
The same measure for `COc1ccc(CNC(=O)C2CCN(c3nc(OC)nc(OC)n3)CC2)cc1`: > 40 µM (inactive); for `CCOC(=O)c1cnc(-c2ccccc2)nc1Oc1ccc(Cl)cc1`: > 40 µM (inactive); for `CCN1CCCC1CNC(=O)COc1cc(=O)n(C)c2ccccc12` (centres undefined): > 40 µM (inactive).
The same measure for `Nn1c(-c2ccccn2)nnc1-c1ccccn1`: > 40 µM (inactive); for `CS(=O)(=O)Oc1ccc(Br)cc1/C=C1/N=C(c2ccco2)OC1=O`: > 40 µM (inactive).
With `O=C(Oc1ccc2c(c1)OCO2)C12CC3CC(CC(C3)C1)C2`, the EC50 is > 40 µM (inactive).
The same measure for `CC1Cc2ccccc2N1C(=O)Cn1cnc2ccccc2c1=O` (centres undefined): > 40 µM (inactive).
For `Cc1ccc(S(=O)(=O)N[C@@H](Cc2ccccc2)C(=O)CCl)cc1`, the EC50 was > 40 µM (inactive).
In the case of `CCCCn1c(=O)c2c(O)cc(=O)oc2c2ccccc21`, the EC50 was > 40 µM (inactive).
In the case of `CC(C)Cc1nn2c(=O)cc(O)nc2s1`, the EC50 is > 40 µM (inactive).
The same measure for `O=C(/C(=C/O)N=Nc1ccc(Cl)cc1)c1ccncc1`: > 40 µM (inactive).
Under `O=C(CCC1CCCC1)c1c(O)c2ccccc2oc1=O` stands > 40 µM (inactive); under `O=C(/C=C/c1ccccc1)Nc1ncn[nH]1`, > 40 µM (inactive).
On to `C=CCn1c(O)c(C(CC)=NCCN2CCOCC2)c(=O)[nH]c1=O`, for which the EC50 is > 40 µM (inactive).
The same measure for `CCCC(=O)Nc1ccccc1Sc1ncnc2scc(-c3ccccc3)c12`: > 40 µM (inactive); for `CN1C(=O)/C(=C/c2cccn2-c2ccc3ccccc3c2)C(=O)NC1=S`: > 40 µM (inactive).
The same measure for `COc1ccc(N(C)C(=S)Nc2ccc3nc(C)c(C)nc3c2)cc1`: > 40 µM (inactive); for `Cc1[nH]nc2nc3c(c(OC(=O)c4ccccc4)c12)c(=O)n(C)c(=O)n3C`: > 40 µM (inactive).
Under `Cn1c(SCC(=O)N2CCCc3ccccc32)nnc1-c1c[nH]c2ccccc12` stands > 40 µM (inactive); under `CC(C)C(c1nnnn1Cc1ccccc1)N1CCN(Cc2ccc3c(c2)OCO3)CC1` (centres undefined), > 40 µM (inactive); under `CCN(CC)Cc1c(O)c(Cl)cc2c(C)c(C)c(=O)oc12`, > 40 µM (inactive).
Consider `Cc1cc(C)cc(CC2CC(=O)N(c3ccc(Cl)cn3)C2=O)c1` (centres undefined), for which the EC50 is > 40 µM (inactive).
Regarding `CN(c1ccccc1)c1nc2ccsc2c(=O)s1`, the EC50 is > 40 µM (inactive).
Under `O=C1c2ccccc2NC(c2ccc(Cl)cc2Cl)N1O` (centres undefined) stands > 40 µM (inactive); under `COc1cc(OC)cc(-c2nc3ccccc3c(=O)n2OC(=O)c2ccc(C)c(C)c2)c1`, > 40 µM (inactive).
As for `O=C(/C=C/c1ccccc1)C1C(=O)c2ccccc2C1=O`, the EC50 was > 40 µM (inactive).
As to `COCCn1c(SCC(=O)Nc2ccc(C)cc2)nc2c(oc3ccccc32)c1=O`, the EC50 is > 40 µM (inactive).
Take `CC1C/C(=C\c2cccnc2)C(=O)/C(=C/c2cccnc2)C1` (centres undefined): the EC50 was > 40 µM (inactive).
As for `CCOC(=O)C1=C(C)Nc2nc(=S)[nH]n2C1c1ccc(Cl)cc1` (centres undefined), the EC50 was > 40 µM (inactive).
The same measure for `O=C(/C(=C/c1ccccc1)n1cncn1)c1ccc(Cl)cc1Cl`: > 40 µM (inactive); for `CC1=CN2C(=N)/C(=C/c3ccc([N+](=O)[O-])o3)C(=O)N=C2S1`: > 40 µM (inactive); for `O=c1c2c3c(sc2ncn1/N=C/c1ccc([N+](=O)[O-])o1)CCCC3`: > 40 µM (inactive).
As for `N#Cc1ccc(-c2ccc(OCC(=O)NCCc3ccccc3)cc2)cc1`, the EC50 is > 40 µM (inactive).
As to `CC1(C)CC(=O)C(C(=O)Cc2ccccc2[N+](=O)[O-])C(=O)C1`, the EC50 was > 40 µM (inactive).
The same measure for `O=C1C(Cl)=C(Nc2ccccc2O)C(=O)N1CCc1ccccc1`: > 40 µM (inactive); for `C=CS(=O)(=O)c1ccc(Oc2ccc(S(=O)(=O)C=C)cc2)cc1`: > 40 µM (inactive); for `O=C1/C(=C\c2cccnc2)CN(Cc2ccccc2)C/C1=C\c1cccnc1`: > 40 µM (inactive).
Under `CCCc1nc2c(c(=O)c3ccccc3n2C)c(=O)n1C1CCCCCC1` stands > 40 µM (inactive); under `COC(=O)C(=O)/C=C(\O)c1ccc(C)cc1`, > 40 µM (inactive).
The same measure for `CN(C)C=C1C(=O)N(C2CCCCC2)C(=O)N(C2CCCCC2)C1=O`: > 40 µM (inactive); for `CC[n+]1ccc(C[n+]2ccccc2)c2ccccc21`: > 40 µM (inactive).
Take `Cc1cc(N2C(=O)CC(Cc3ccccc3)C2=O)no1` (centres undefined): the EC50 was > 40 µM (inactive).
The same measure for `CCc1c(C)c(C#N)c2nc3ccccc3n2c1Cl`: > 40 µM (inactive); for `COC(=O)/C(=C/c1cn(C)c2ccccc12)[N+](=O)[O-]`: > 40 µM (inactive).
With `CCCc1cc(=O)oc2cc(C)c(CN3CCCC3)c(O)c12`, the EC50 was > 40 µM (inactive).
As for `O=C1OC2(CCCCC2)OC(=O)C1=CNc1nc2ccccc2s1`, the EC50 was > 40 µM (inactive).
Under `O=C(CS(=O)c1ccc(C(F)(F)F)cc1[N+](=O)[O-])Oc1ccccc1` (centres undefined) stands > 40 µM (inactive).
The same measure for `O=C1Nc2cc(Cl)c(Cl)cc2N(O)N1c1cc(Cl)cc(Cl)c1`: > 40 µM (inactive); for `CCc1nnc(N2C(=O)c3ccc(Oc4ccc([N+](=O)[O-])cc4)cc3C2=O)s1`: > 40 µM (inactive).
As for `COc1ccc(O)c(C(=O)c2cc(C#N)c(=O)n(CC3CCCO3)c2)c1` (centres undefined), the EC50 was > 40 µM (inactive).
The same measure for `Cc1cc(C)n(-c2ccc(OCC(=O)O)nn2)n1`: > 40 µM (inactive); for `Nc1sc(-c2ccccc2)cc1C(=O)O`: > 40 µM (inactive); for `O=C(NCc1cccnc1)c1ccc(S(=O)(=O)N2CCCCC2)cc1`: > 40 µM (inactive).
The same measure for `CCCC[n+]1c(-c2ccc(Cl)cc2Cl)csc1Nc1ccccc1`: > 40 µM (inactive); for `COc1cc(OC)cc(-c2nc3ccccc3c(=O)n2OC(=O)c2ccc(Br)cc2)c1`: > 40 µM (inactive).
The same measure for `CCOc1ccc(/C=C2/C(=O)NC(=O)N(CCc3ccc(F)cc3)C2=O)cc1`: > 40 µM (inactive).
Regarding `COc1c(Br)cc(Br)cc1/C=N/n1c(C)nnc1C`, the EC50 is > 40 µM (inactive).
The same measure for `CCN1C(=O)/C(=C/N(C(C)=O)c2ccccc2)N(c2ccccc2)C1=S`: > 40 µM (inactive); for `Cc1nc(SC(C)C)[nH]c(=O)c1Cc1ccccc1`: > 40 µM (inactive).
With `COc1ccc(CCN2C(=O)C(O)=C(C(=O)c3ccco3)C2c2cccs2)cc1OC` (centres undefined), the EC50 was > 40 µM (inactive).
Regarding `Cc1ccc(NC(=O)CN2CCN(CCN=CC3=C(O)CC(c4ccccc4)CC3=O)CC2)cc1` (centres undefined), the EC50 was > 40 µM (inactive).
The same measure for `C/C(=N\NC(=O)c1ccccc1O)C1C(=O)c2ccccc2C1=O`: > 40 µM (inactive); for `Oc1ccc(NCc2ccccc2OCc2ccccc2F)cc1`: > 40 µM (inactive); for `COC(=O)C1=C(C(=O)OC)C(c2cc(Br)ccc2O)c2sc(=O)[nH]c2S1` (centres undefined): > 40 µM (inactive).
The same measure for `CCc1ccc(C(=O)CN2C(=O)NC(C)(CCc3ccccc3)C2=O)cc1` (centres undefined): > 40 µM (inactive).
Under `COC(=O)c1sc(S(=O)(=O)Nc2ccc(Br)cc2)c(C(=O)OC)c1C` stands > 40 µM (inactive); under `Cc1ccc(N2NC(=O)/C(=C\c3cc4c(cc3[N+](=O)[O-])OCO4)C2=O)cc1C`, > 40 µM (inactive); under `CN1CCN(CC(=O)Nc2ccc(Cl)cc2Cl)CC1`, > 40 µM (inactive).
For `Cc1ccccc1Oc1cc(-n2ncc(Cl)c(Cl)c2=O)ncn1`, the EC50 is > 40 µM (inactive).
Take `O=c1[nH]c2ccccc2nc1C(Cl)c1ccccc1` (centres undefined): the EC50 is > 40 µM (inactive).
On to `CN(C)C1(c2nnnn2CCOC(=O)Nc2ccc(Cl)cc2)CCCCC1`, for which the EC50 was > 40 µM (inactive).
The same measure for `Cc1cc(C)c(S(=O)(=O)c2ccccc2)c(OC(=O)c2ccc(Cl)cc2Cl)n1`: > 40 µM (inactive); for `CCCCC1C(=O)CC[C@H]2[C@@H]1CC(=O)[C@@H]2C/C=C\CCCC(=O)O` (some centres undefined): > 40 µM (inactive).
Under `O=C1Nc2ccccc2C12OCC1(CO2)COC2(OC1)C(=O)Nc1ccccc12` (centres undefined) stands > 40 µM (inactive).
